Results on ten compounds are retold here after patent publication US9328112B2, “Tetracyclic CDK9 kinase inhibitors” (AbbVie Inc., priority 2014, dated 2016).

In one assay the test system is H929 cells. The experiment in a line: Cell viability assay (Cell TiterGlo). Format: cell-based. Conditions: Homo sapiens, NCI-H929, 24 hours at 37° C., Cell TiterGlo luminescence. The procedure: The cell viability assay was performed using H929 cells. Cells were seeded in 96-well plates at 10,000 cells/well and, after overnight incubation, treated with compounds in a dose response of 3-fold dilutions from 10 μM to 0.005 μM ([…], 0.1% final DMSO concentration). After 24 hours at 37° C., cell viability was measured using Cell TiterGlo reagent (Promega) with a luminescence reader.

Another assay has as its target CDK9/Cyclin T1 (Homo sapiens (Human), UniProt P50750). The assay can be described thus: CDK9 enzyme assay (LANCE ULight TR-FRET kinase assay). In kind it is biochemical. The settings on record: 1000 μM ATP, 100 nM ULight MBP, kinase reaction 1 hour. The method in brief:
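TR-FRET readout (ex 320 nm; em 615/665 nm) after 1 h detection with 0.5 nM europium anti-phospho-MBP antibody in 20 mM EDTA stop buffer. Preceding 1 h kinase step: CDK9/Cyclin T1, ULight-MBP substrate at 100 nM, ATP at 1000 μM, compound pre-diluted in DMSO then buffer.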
In general terms: TR-FRET usually uses a lanthanide donor and a delayed reading to cut background.

CDK9/Cyclin T1, sequence (P50750 whole entry): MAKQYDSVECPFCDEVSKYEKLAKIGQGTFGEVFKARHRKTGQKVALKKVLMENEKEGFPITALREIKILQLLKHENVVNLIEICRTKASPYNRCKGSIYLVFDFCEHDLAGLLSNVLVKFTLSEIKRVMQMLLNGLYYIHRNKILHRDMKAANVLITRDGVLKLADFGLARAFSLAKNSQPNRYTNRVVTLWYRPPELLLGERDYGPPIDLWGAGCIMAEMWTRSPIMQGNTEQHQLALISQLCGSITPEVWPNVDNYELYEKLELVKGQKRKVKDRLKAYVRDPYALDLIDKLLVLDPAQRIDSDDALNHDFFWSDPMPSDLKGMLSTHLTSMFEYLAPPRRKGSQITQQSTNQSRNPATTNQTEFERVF
CDK9/Cyclin T1, sequence (O60563 whole entry partner): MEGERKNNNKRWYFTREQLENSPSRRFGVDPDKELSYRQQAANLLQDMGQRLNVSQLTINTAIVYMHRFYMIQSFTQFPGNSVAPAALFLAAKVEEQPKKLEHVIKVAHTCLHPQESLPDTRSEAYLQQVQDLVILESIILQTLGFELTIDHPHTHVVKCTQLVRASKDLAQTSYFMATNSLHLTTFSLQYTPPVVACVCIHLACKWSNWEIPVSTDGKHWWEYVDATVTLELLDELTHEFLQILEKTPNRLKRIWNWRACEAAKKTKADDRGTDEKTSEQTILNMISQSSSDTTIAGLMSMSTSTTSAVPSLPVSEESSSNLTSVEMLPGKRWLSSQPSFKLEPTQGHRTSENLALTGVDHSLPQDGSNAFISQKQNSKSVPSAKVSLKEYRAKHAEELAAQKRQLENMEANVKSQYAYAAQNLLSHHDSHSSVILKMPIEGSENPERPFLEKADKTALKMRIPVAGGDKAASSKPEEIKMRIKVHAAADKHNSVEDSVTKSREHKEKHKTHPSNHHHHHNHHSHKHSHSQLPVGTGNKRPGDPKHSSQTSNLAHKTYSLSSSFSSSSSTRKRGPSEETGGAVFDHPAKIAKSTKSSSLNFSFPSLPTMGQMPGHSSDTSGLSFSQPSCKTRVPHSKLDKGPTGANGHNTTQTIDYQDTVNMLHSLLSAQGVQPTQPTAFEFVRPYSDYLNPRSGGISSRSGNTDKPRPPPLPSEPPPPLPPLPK

For `CN1Cc2c(C3=CCN([C@H]4CC[C@H](CC(=O)O)CC4)CC3)[nH]c3nccc(c23)-c2cc(F)c(F)cc21` [Example 146, {trans-4-[4-(9,10-difluoro-7-methyl-6,7-dihydro-4H-3,4,7-triazadibenzo[cd,f]azulen-5-yl)-3,6-dihydropyridin-1(2H)-yl]cyclohexyl}acetic acid], the concentration for half-maximal inhibition (IC50) (usually the concentration needed to halve the response being measured) with H929 cells was 32 nM; on CDK9/Cyclin T1 it was 82 nM.

For `CN1Cc2c(C3=CCN(CC(=O)N4CCC[C@H]4CO)CC3)[nH]c3nccc(c23)-c2cc(F)c(F)cc21` [Example 147, 2-[4-(9,10-difluoro-7-methyl-6,7-dihydro-4H-3,4,7-triazadibenzo[cd,f]azulen-5-yl)-3,6-dihydropyridin-1(2H)-yl]-1-[(2S)-2-(hydroxymethyl)pyrrolidin-1-yl]ethanone], the IC50 in the assay on H929 cells is 6 nM; on CDK9/Cyclin T1 it was 45 nM.

As for `CN1Cc2c(C3=CCN(CC(=O)N(C)C4CC(O)C4)CC3)[nH]c3nccc(c23)-c2cc(F)c(F)cc21` (centres unmarked) [Example 148, 2-[4-(9,10-difluoro-7-methyl-6,7-dihydro-4H-3,4,7-triazadibenzo[cd,f]azulen-5-yl)-3,6-dihydropyridin-1(2H)-yl]-N-(3-hydroxycyclobutyl)-N-methylacetamide], the 50% inhibitory concentration (IC50) in the assay with H929 cells is 25 nM; against CDK9/Cyclin T1 it was 53 nM.

Regarding `CN(C)C(=O)CN1CC=C(c2[nH]c3nccc4c3c2CN(C)c2ncccc2-4)CC1` [Example 149, N,N-dimethyl-2-[4-(7-methyl-6,7-dihydro-4H-3,4,7,8-tetraazadibenzo[cd,f]azulen-5-yl)-3,6-dihydropyridin-1(2H)-yl]acetamide], the IC50 in the assay on H929 cells turned out to be 160 nM; at CDK9/Cyclin T1 it was 110 nM.

Turning to `CN1Cc2c(C3=CCN([C@H]4CC[C@H](C(=O)O)CC4)CC3)[nH]c3nccc(c23)-c2cc(F)c(F)cc21` [Example 150, trans-4-[4-(9,10-difluoro-7-methyl-6,7-dihydro-4H-3,4,7-triazadibenzo[cd,f]azulen-5-yl)-3,6-dihydropyridin-1(2H)-yl]cyclohexanecarboxylic acid], the IC50 is 28 nM in the assay on H929 cells and 57 nM on CDK9/Cyclin T1.

Regarding `CN1Cc2c(C3=C[C@@H]4COC(=O)N4CC3)[nH]c3nccc(c23)-c2cc(F)ccc21` [Example 151, (8aR)-7-(10-fluoro-7-methyl-6,7-dihydro-4H-3,4,7-triazadibenzo[cd,f]azulen-5-yl)-1,5,6,8a-tetrahydro[1,3]oxazolo[3,4-a]pyridin-3-one], the IC50 in the assay with H929 cells came to 190 nM; against CDK9/Cyclin T1 it was 37 nM.

For the compound `CN1Cc2c(C3=C[C@H]4COC(=O)N4CC3)[nH]c3nccc(c23)-c2cc(F)ccc21` [Example 152, (8aS)-7-(10-fluoro-7-methyl-6,7-dihydro-4H-3,4,7-triazadibenzo[cd,f]azulen-5-yl)-1,5,6,8a-tetrahydro[1,3]oxazolo[3,4-a]pyridin-3-one], the IC50 with H929 cells is 660 nM; at CDK9/Cyclin T1 it was 41 nM.

With `CN1Cc2c(C3=CCN4C(=O)OC[C@H]4C3)[nH]c3nccc(c23)-c2cc(F)ccc21` [Example 153, (8aR)-7-(10-fluoro-7-methyl-6,7-dihydro-4H-3,4,7-triazadibenzo[cd,f]azulen-5-yl)-1,5,8,8a-tetrahydro[1,3]oxazolo[3,4-a]pyridin-3-one], the half-inhibitory concentration (IC50) was found to be 600 nM in the assay with H929 cells and 66 nM against CDK9/Cyclin T1.

As to `CN1Cc2c(C3=C[C@H](CO)NCC3)[nH]c3nccc(c23)-c2cc(F)ccc21` [Example 154, [(2R)-4-(10-fluoro-7-methyl-6,7-dihydro-4H-3,4,7-triazadibenzo[cd,f]azulen-5-yl)-1,2,5,6-tetrahydropyridin-2-yl]methanol], the IC50 turned out to be 56 nM in the assay with H929 cells and 28 nM on CDK9/Cyclin T1.

With `CN1Cc2c(C3=C[C@@H](CO)NCC3)[nH]c3nccc(c23)-c2cc(F)ccc21` [Example 155, [(2S)-4-(10-fluoro-7-methyl-6,7-dihydro-4H-3,4,7-triazadibenzo[cd,f]azulen-5-yl)-1,2,5,6-tetrahydropyridin-2-yl]methanol], the IC50 in the assay on H929 cells is 39 nM; against CDK9/Cyclin T1, 41 nM.
